This note sets out measurements from patent US20220324835A1 (Nurix Therapeutics, Inc., priority 2018, published 2022).

The target in assay [1] is T1, Cbl-b (Homo sapiens, UniProt Q13191). Nature of the assay: Cbl-b inhibition assay (Cbl-b activity assay, FRET, Biological Example 1; 100 mM NaCl, 60 nM Src kinase). It counts as biochemical. The settings on record: upper bound stated in text lists; read-out: IC50 values in the Cbl-b inhibition assay of Biological Example 1. An excerpt:
FIG. 1A and FIG. 1B show a series of diagrams depicting the activity assay utilized to assay inhibition of Cbl-b activity by a Cbl-b inhibitor. FIG. 1A: The activity assay mixture comprises an N-terminal biotinylated Avi-tagged Cbl-b, an E2 enzyme (i.e., UbcH5B) irreversibly conjugated to Bodipy-Fluorescein tagged ubiquitin (i.e., UbcH5B-Ub), a Src kinase, streptavidin-terbium, and assay buffer. Phosphorylation of Cbl-b by the Src kinase allows UbcH5B-Ub to bind to Cbl-b and bring the Bodipy-Fluorescein tagged ubiquitin in proximity to the streptavidin-terbium bound to the N-terminal biotinylated Avi-tagged Cbl-b. […] FIG. 1B: In the presence of a Cbl-b inhibitor, such as one described herein, Cbl-b is unable to bind UbcH5B-Ub. The lack of a FRET signal indicates Cbl-b is inhibited by the Cbl-b inhibitor. Ub indicates ubiquitin; N-Avi indicates biotinylated Avi-tag at the N-terminus of Cbl-b; inhibitor indicates Cbl-b inhibitor.
The lack of a FRET signal indicates Cbl-b is inhibited by the Cbl-b inhibitor. In FIG. 1A and FIG. 1B, Ub indicates ubiquitin; N-Avi indicates biotinylated Avi-tag at the N-terminus of Cbl-b; and inhibitor indicates Cbl-b inhibitor.

Assay [2] addresses T1, Cbl-b. Nature of the assay: Cbl-b activity assay (Cbl-b inhibition assay), TR-FRET of Cbl-b interaction with UbcH5B-Ub. It counts as biochemical. The conditions noted are these: assay buffer with 100 mM NaCl, 60 nM Src kinase; read-out: Cbl-b activity IC50. The method, then: The ability of candidate compounds to inhibit Cbl-b activity was measured by monitoring the interaction of Cbl-b with UbcH5B-Ub in the presence of the candidate compound.
Fluorescently labeled UbcH5B-Ub was prepared by conjugating ubiquitin (Ub), labeled at its N-terminus with Bodipy-Fluorescein, to UbcH5B, an E2 enzyme, harboring a cysteine to lysine mutation at position 85. […] After incubation in the presence of the candidate compound, the plate was incubated for an additional 1.5 hours in the presence of 60 nM Src kinase with 1 mM ATP and 5 mM MgCl2 (final concentrations). […] The plate was incubated for 1 hour.
Column marked with an asterisk (*) were tested as described above with assay buffer containing 50 mM NaCl instead of 100 mM NaCl and 30 nM Src kinase instead of 60 nM Src kinase. The resulting data for the Cbl-b binding assay was solvent corrected and double referenced prior to analysis. All data were globally fit to a steady-state affinity and kinetic binding model where applicable). Fit parameters were derived from a 1:1 binding model using the Biacore T200 Evaluation Software V2.0 (GE Healthcare) (Table 2).
A general note: In TR-FRET formats the signal depends on donor and acceptor labels being close together.

T1 sequence (Q13191 36-427): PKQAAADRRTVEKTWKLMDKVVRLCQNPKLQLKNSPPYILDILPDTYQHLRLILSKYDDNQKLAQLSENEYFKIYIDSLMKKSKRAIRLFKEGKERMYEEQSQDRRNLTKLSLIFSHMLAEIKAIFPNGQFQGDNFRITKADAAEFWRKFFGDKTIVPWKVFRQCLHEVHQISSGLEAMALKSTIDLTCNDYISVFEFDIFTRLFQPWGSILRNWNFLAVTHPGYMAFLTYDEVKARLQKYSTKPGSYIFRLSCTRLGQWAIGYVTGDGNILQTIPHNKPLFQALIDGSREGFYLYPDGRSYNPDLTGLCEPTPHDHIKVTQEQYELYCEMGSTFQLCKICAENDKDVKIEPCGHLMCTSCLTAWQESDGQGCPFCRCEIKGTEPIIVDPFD

What is called IC50 is the midpoint of a concentration-inhibition curve. Regarding `Cn1cnnc1CC1(c2cccc(N3Cc4c(cc(CN5CC[C@@H](F)[C@@H](F)C5)cc4C(F)(F)F)C3=O)c2)COC1` (relative stereo) [Example 634, 6-((cis-3,4-difluoropiperidin-1-yl)methyl)-2-(3-(3-((4-methyl-4H-1,2,4-triazol-3-yl)methyl)oxetan-3-yl)phenyl)-4-(trifluoromethyl)isoindolin-1-one], the values for the IC50 at Cbl-b [1] and on Cbl-b [2] were at most 0.1 µM and below 0.1 µM, respectively. The corresponding values for `Cn1cnnc1CC1(c2cccc(N3Cc4c(cc(CN5CC[C@@H]6OCC[C@@H]6C5)cc4C(F)(F)F)C3=O)c2)COC1` (relative stereo) [Example 708, rel-6-[(3aR,7aS)-hexahydro-2H-furo[3,2-c]pyridin-5-ylmethyl]-2-(3-{3-[(4-methyl-1,2,4-triazol-3-yl)methyl]oxetan-3-yl}phenyl)-4-(trifluoromethyl)-3H-isoindol-1-one] are at most 0.1 µM and below 0.1 µM. In the same order, the values of `Cn1cnnc1CC1(c2cccc(N3Cc4c(cc(CN5CC[C@@H]6NCCO[C@@H]6C5)cc4C(F)(F)F)C3=O)c2)COC1` (relative stereo) [Example 713, rel-6-[(4aR,8aS)-octahydropyrido[3,4-b][1,4]oxazin-6-ylmethyl]-2-(3-{3-[(4-methyl-1,2,4-triazol-3-yl)methyl]oxetan-3-yl}phenyl)-4-(trifluoromethyl)-3H-isoindol-1-one] are at most 0.1 µM and below 0.1 µM. `CN1CC[C@@H](O)[C@H](Cc2cc3c(c(C(F)(F)F)c2)CN(c2cccc(C4(Cc5nncn5C)COC4)c2)C3=O)C1` (single isomer, unassigned) [Compound 533]: the values for the half-inhibitory concentration (IC50) on Cbl-b [1] and on Cbl-b [2] were at most 0.1 µM and below 0.1 µM, respectively. On to `CC(c1cc(C(=O)Nc2cccc(C3(Cc4nncn4C)COC3)c2)nc(C2CC2)n1)N1CCC2(CC2)C1` (stereo in doubt) [Example 592b, (S)-6-(1-(5-azaspiro[2.4]heptan-5-yl)ethyl)-2-cyclopropyl-N-(3-(3-((4-methyl-4H-1,2,4-triazol-3-yl)methyl)oxetan-3-yl)phenyl)pyrimidine-4-carboxamide], for which the results for the IC50 on Cbl-b [1] and at Cbl-b [2] were at most 0.1 µM and below 0.1 µM, respectively. In the same order, the values of `C[C@H](Sc1nncn1C)c1cccc(NC(=O)c2cccc(N(C)C)c2)c1` [Compound 26, (S)-3-(Dimethylamino)-N-(3-(1-((4-methyl-4H-1,2,4-triazol-3-yl)thio)ethyl)phenyl)benzamide] are at most 10 µM and above 10 µM. For `C[C@H](Sc1nncn1C)c1cccc(NC(=O)c2cccc(N)c2)c1` [Compound 58, (S)-3-amino-N-(3-(1-((4-methyl-4H-1,2,4-triazol-3-yl)thio)ethyl)phenyl)benzamide], the IC50 at Cbl-b [1] is at most 10 µM; at Cbl-b [2] it was 3 to 10 µM. Turning to `C[C@H](Sc1nncn1C)c1cccc(NC(=O)c2cc3ccccc3c(C(F)(F)F)n2)c1` [Compound 63, (S)-N-(3-(1-((4-methyl-4H-1,2,4-triazol-3-yl)thio)ethyl)phenyl)-1-(trifluoromethyl)isoquinoline-3-carboxamide], the IC50 at Cbl-b [1] was at most 10 µM; on Cbl-b [2] it was 3 to 10 µM. Regarding `CC(Sc1nncn1C)c1ccc(OC(F)(F)F)c(NC(=O)c2cccc(C(F)(F)F)n2)c1` (stereo not drawn) [Compound 94, N-(5-(1-((4-methyl-4H-1,2,4-triazol-3-yl)thio)ethyl)-2-(trifluoromethoxy)phenyl)-6-(trifluoromethyl)picolinamide], the IC50 at Cbl-b [1] is at most 10 µM; on Cbl-b [2] it was 1 to 3 µM.

Take `C[C@H](Sc1nncn1C)c1ccnc(NC(=O)c2ccc(Cl)c(C(F)(F)F)n2)c1` [Compound 106, (S)-5-chloro-N-(4-(1-((4-methyl-4H-1,2,4-triazol-3-yl)thio)ethyl)pyridin-2-yl)-6-(trifluoromethyl)picolinamide]: the half-maximal inhibitory concentration (IC50) on Cbl-b [1] was at most 10 µM; at Cbl-b [2] it was 1 to 3 µM.

With `C[C@H](Sc1nncn1C)c1ccnc(NC(=O)c2noc3ccccc23)c1` [Compound 115, (S)-N-(4-(1-((4-methyl-4H-1,2,4-triazol-3-yl)thio)ethyl)pyridin-2-yl)benzo[d]isoxazole-3-carboxamide], the IC50 at Cbl-b [1] was at most 10 µM; on Cbl-b [2] it was 3 to 10 µM. As for `C[C@H](Sc1nncn1C)c1ccnc(NC(=O)c2csc(C(F)(F)F)n2)c1` [Compound 118, N-[4-[(1S)-1-[(4-methyl-1,2,4-triazol-3-yl)sulfanyl]ethyl]-2-pyridyl]-2-(trifluoromethyl)thiazole-4-carboxamide], the IC50 is at most 10 µM at Cbl-b [1] and 1 to 3 µM on Cbl-b [2].

`C[C@H](Sc1nncn1C)c1ccnc(NC(=O)c2cc(Br)cc(C(F)(F)F)n2)c1` [Compound 119, 4-bromo-N-[4-[(1S)-1-[(4-methyl-1,2,4-triazol-3-yl)sulfanyl]ethyl]-2-pyridyl]-6-(trifluoromethyl)pyridine-2-carboxamide]: the half-maximal inhibitory concentration (IC50) at Cbl-b [1] is at most 1 µM; at Cbl-b [2] it was 0.301 to 1 µM.

As to `CC(Sc1nncn1C)c1cncc(NC(=O)c2cccc(C(F)(F)F)n2)c1` (stereo not drawn) [Compound 127, N-[5-[1-[(4-methyl-1,2,4-triazol-3-yl)sulfanyl]ethyl]-3-pyridyl]-6-(trifluoromethyl)pyridine-2-carboxamide], the half-maximal inhibitory concentration (IC50) was at most 10 µM on Cbl-b [1] and 3 to 10 µM on Cbl-b [2]. Take `Cc1c[nH]nc1S[C@@H](C)c1ccnc(NC(=O)c2ccc3ccccc3n2)c1` [Compound 128a, (S)-N-(4-(1-((4-methyl-1H-pyrazol-3-yl)thio)ethyl)pyridin-2-yl)quinoline-2-carboxamide]: the IC50 was at most 10 µM at Cbl-b [1] and 1 to 3 µM at Cbl-b [2]. As to `Cc1cn(C)c(SC(C)c2ccnc(NC(=O)c3ccc4ccccc4n3)c2)n1` (stereo not drawn) [Compound 129, N-(4-(1-((1,4-dimethyl-1H-imidazol-2-yl)thio)ethyl)pyridin-2-yl)quinoline-2-carboxamide], the 50% inhibitory concentration (IC50) is at most 10 µM on Cbl-b [1] and above 10 µM at Cbl-b [2]. For `CC(Sc1nncn1C)c1cc(NC(=O)c2ccc3ccccc3n2)c2c(c1)C(C)(O)CC2` (stereo not drawn) [Compound 131, N-(1-hydroxy-1-methyl-6-(1-(4-methyl-4H-1,2,4-triazol-3-ylthio)ethyl)-2,3-dihydro-1H-inden-4-yl)quinoline-2-carboxamide], the concentration for half-maximal inhibition (IC50) is at most 10 µM on Cbl-b [1] and 3 to 10 µM on Cbl-b [2]. In the same order, the values of `C[C@H](Sc1nncn1C)c1cccc(NC(=O)c2cc(C(=O)N3CCC[C@H]3C)ccn2)c1` [Compound 142, N-(3-((S)-1-((4-methyl-4H-1,2,4-triazol-3-yl)thio)ethyl)phenyl)-4-((R)-2-methylpyrrolidine-1-carbonyl)picolinamide] are at most 10 µM and above 10 µM. `Cc1conc1C[C@H](C)c1cccc(N2Cc3c(cccc3C(F)(F)F)C2=O)c1` [Compound 367b, (S)-2-(3-(1-(4-methylisoxazol-3-yl)propan-2-yl)phenyl)-4-(trifluoromethyl)isoindolin-1-one]: the concentration for half-maximal inhibition (IC50) on Cbl-b [2] lay in the range of 1 to 3 µM. On the same count and under the same terms, to `C[C@H](Cc1nncs1)c1cccc(N2Cc3c(cccc3C(F)(F)F)C2=O)c1` [Compound 368, (R)-2-(3-(1-(1,3,4-thiadiazol-2-yl)propan-2-yl)phenyl)-4-(trifluoromethyl)isoindolin-1-one] belongs 0.301 to 1 µM; to `C[C@H](Cc1nncn1C)c1cccc(N2Cc3c(ccnc3C(C)(C)F)C2=O)c1` [Compound 373, 4-(2-fluoropropan-2-yl)-2-[3-[(2R)-1-(4-methyl-4H-1,2,4-triazol-3-yl)propan-2-yl]phenyl]-1H,2H,3H-pyrrolo[3,4-c]pyridin-1-one], 0.301 to 1 µM; to `Cn1cnnc1C[C@@H](c1cccc(N2Cc3c(cccc3C(F)(F)F)C2=O)c1)C(F)(F)F` [Compound 471b, (S)-2-(3-(1,1,1-trifluoro-3-(4-methyl-4H-1,2,4-triazol-3-yl)propan-2-yl)phenyl)-4-(trifluoromethyl)isoindolin-1-one], 3 to 10 µM.

With `Cn1cnnc1[C@@H](F)[C@@](C)(F)c1cccc(N2Cc3c(cc(C4CC4)cc3C(F)(F)F)C2=O)c1` [Compound 481b, 6-cyclopropyl-2-[3-[(1R,2S)-1,2-difluoro-1-(4-methyl-4H-1,2,4-triazol-3-yl)propan-2-yl]phenyl]-4-(trifluoromethyl)-2,3-dihydro-1H-isoindol-1-one], the 50% inhibitory concentration (IC50) at Cbl-b [2] is 1 to 3 µM. For `CCn1cnnc1CC1(c2cccc(NC(=O)c3cc(C)nc(C4CC4)n3)c2)COC1` [Example 705, 2-cyclopropyl-N-(3-{3-[(4-ethyl-1,2,4-triazol-3-yl)methyl]oxetan-3-yl}phenyl)-6-methylpyrimidine-4-carboxamide], the IC50 on Cbl-b [2] fell in the range of 3 to 10 µM.
